Values quoted from earlier work, collected in patent US20190289847A1, “SUSTAINED RELEASE FIBERS” (INVISTA TEXTILES (U.K.) LIMITED, priority 2016, published 2019).

Assays:
fleas and ticks = settings: literature

O=C(Oc1ccccc1)c1ccccc1O [phenyl salicylate]
duration of efficacy (dust mites; applied in a typical manner, i.e. topical application, at best): 3-4 months
effectiveness against dust mites (dust mites; literature): effective
effectiveness against fleas and ticks (fleas and ticks): effective
